Among the data in patent US20250154140A1 (Sunnybrook Research Institute, priority 2022, published 2025) are IC50 values, retold here.

One test concerns the target BAX (Homo sapiens, UniProt Q07812). The test can be described thus: SMAC mCherry assay in permeabilized Bax-/- Bak-/- BMK cells with recombinant Bax and cBid. Set-up: made in house; host or cells: Escherichia coli BL21-AI. The note with it: 20 nM Bax, 0.5 nM cBid, 60-80 minutes; read-out: SMAC mCherry I.D IC50. It is filed as cell-based, mouse. As to the method: Bax−/− Bak−/− double-knockout Baby Mouse Kidney (BMK) cells stably expressing a SMAC-(1-56)-mCherry fusion protein were cultured in DMEM complete (DMEM supplemented with 10% FBS and 1× Penicillin-Streptomycin) in 10 cm diameter tissue-culture treated dishes at 37° C. in a humidified incubator with 5% CO2 in air. Cells were washed with PBS, incubated with 1×Trypsin and resuspended in DMEM complete. Detached cells were seeded at 6000 cells per well in 50 uL DMEM complete into a 384 well Perkin-Elmer Phenoplate, incubated at room-temperature for 30 minutes followed by incubation overnight at 37° C. in a humidified incubator with 5% CO2 in air. Recombinant Bax and recombinant cBid were quickly thawed between fingers and 25 mM compound stocks in DMSO were thawed at room temperature. An 8 point titration curve of each compound was created in a 384-well source plate containing Trehalose-Hepes Buffer (THB, 135 mM trehalose, 50 mM KCl, 10 mM HEPES-KOH pH 7.4, 5 mM succinate, 20 uM EDTA, 20 uM EGTA, 0.1% BSA) supplemented with 1/1000 DRAQ5, 0.0025% digitonin, 20 nM Bax and 0.5 nM cBid. The source plate also contained control wells with THB supplemented with 1/1000 DRAQ5, 0.0025% digitonin plus 20 nM Bax (negative control) or 20 nM Bax and 0.5 nM cBid (positive control). Using the Vantage automated liquid handler, DMEM complete media was removed from the cells growing in the 384 well Phenoplate. The cells were washed 2× with 30 uL THB and then 25 uL from the 384 well source plate containing THB proteins and compounds was transferred to the cells growing in the 384 well plate. The cells were incubated for 60-80 minutes at 37 C in a humidified incubator with 5% CO2 in air and then imaged on the Opera Phenix Microscope. Two image channels were acquired: 1) DRAQ5 channel, to visualize nuclei and aid in cell segmentation and 2) SMAC-mCherry channel to visualize mitochondria that retain SMAC-mCherry. Data was processed using PerkinElmer Harmony software where the cells were segmented using the DRAQ5 channel and the mean intensity of SMAC-mCherry for each cell was calculated. The single-cell lobject level data was exported and then analyzed using R code. A per cell SMAC-mCherry intensity cutoff was calculated as 1.33 times the mean per cell SMAC-mCherry intensity of the THB+Bax control. Cells with a SMAC-mCherry intensity below or equal to the cutoff were scored as “released”. The percentage SMAC-mCherry release was calculated as the number of cells scored as “released” divided by the total amount of cells multiplied by 100. Dose-response curves were fit to a 4-parameter log-logistic model to determine the IC50 value for each compound.

The target in another test is T1, FL EGFR (Homo sapiens, UniProt P00533).
T1 construct: kinase domain of EGFR (amino acids 695-1210); purchased Promega V3831
T1 sequence (P00533 695-1210): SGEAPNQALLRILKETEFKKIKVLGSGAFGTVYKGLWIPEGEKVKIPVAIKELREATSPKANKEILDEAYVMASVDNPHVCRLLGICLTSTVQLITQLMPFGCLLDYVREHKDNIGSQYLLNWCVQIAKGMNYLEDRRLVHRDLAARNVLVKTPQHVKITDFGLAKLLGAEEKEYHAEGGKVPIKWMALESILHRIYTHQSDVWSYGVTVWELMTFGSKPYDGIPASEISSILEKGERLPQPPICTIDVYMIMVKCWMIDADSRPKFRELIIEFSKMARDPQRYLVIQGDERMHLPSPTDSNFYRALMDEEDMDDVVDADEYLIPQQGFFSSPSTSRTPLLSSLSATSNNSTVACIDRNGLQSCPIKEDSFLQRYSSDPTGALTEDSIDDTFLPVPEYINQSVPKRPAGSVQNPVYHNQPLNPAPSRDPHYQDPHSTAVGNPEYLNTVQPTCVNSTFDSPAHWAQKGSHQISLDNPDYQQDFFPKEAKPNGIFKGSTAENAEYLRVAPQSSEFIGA
The test can be described thus: EGFR kinase assay (ADP-Glo). It is filed as biochemical. As to the method:
A peptide containing the kinase domain of EGFR (amino acids 695-1210) was used to assess the inhibitory potency of the inhibitors. The ADP-Glo kinase assay (Promega V9101), and the EGFR kinase enzyme (Promega V3831) were used according to the supplier's instructions. Briefly, […] reactions were assembled in wells of a 384 well plate as follows: 5 μL of the kinase reaction, 5 μL of the ADP depletion reagent, and 10 μL of the luciferase reagent. For the kinase reaction: 1 μL of the inhibitor (dissolved in DMSO) was mixed with 2 μL EGFR peptide ([…]), 1 μL of a poly Glu4Tyr1 peptide (0.2 μg/μL), 1 μL reaction buffer, and 1 μL of ATP (final concentration of 5 μM). The kinase reaction was incubated at room temperature for 1 hour. 5 μL of the ATP depletion/kinase terminating reagent was mixed into each well and incubated at room temperature for 40 minutes. 10 μL of the kinase detection reagent containing luciferase was mixed into each well and incubated at room temperature for 30 minutes for bioluminescent detection of ADP produced from the kinase reaction in step 1. Bioluminescent signal was detected in a Tecan Safire^2 with a black plug covering the excitation filter, and an empty emission filter. The integration time was increased to […] to detect enough luminescence per reading.
(In general: In ADP-Glo the light output rises with the ADP produced.)

Structures are written as SMILES.

Sequence of BAX (Q07812 whole entry, the tested form may be a part): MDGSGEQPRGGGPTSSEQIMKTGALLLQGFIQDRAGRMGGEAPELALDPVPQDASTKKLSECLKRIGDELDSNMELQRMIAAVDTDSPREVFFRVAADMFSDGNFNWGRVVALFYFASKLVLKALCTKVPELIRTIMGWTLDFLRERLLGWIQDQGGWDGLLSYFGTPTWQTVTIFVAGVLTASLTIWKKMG

In general, IC50 refers to the concentration that inhibits the measured activity by half. As for `COc1cc2ccnc(Nc3ccc(F)c(Cl)c3)c2cc1NC(=O)CCCN1CCCCC1` [Compound 1-1, N-(1-((3-chloro-4-fluorophenyl)amino)-6-methoxyisoquinolin-7-yl)-4-(piperidin-1-yl)butanamide], the half-inhibitory concentration (IC50) on BAX is 0.1 to 10 µM; on FL EGFR, greater than 10 µM. Regarding `COc1cccc(Nc2nccc3cc(OC)c(NC(=O)CCCN4CCCCC4)cc23)c1` [Compound 1-10, N-(6-methoxy-1-((3-methoxyphenyl)amino)isoquinolin-7-yl)-4-(piperidin-1-yl)butanamide], on BAX, the IC50 was greater than 100 µM.

Consider `COc1cc2ccnc(Nc3ccc(C)cc3)c2cc1NC(=O)CCCN1CCCCC1` [Compound 1-14, N-(6-methoxy-1-(p-tolylamino)isoquinolin-7-yl)-4-(piperidin-1-yl)butanamide], for which, at BAX, the IC50 was in the range of 51 to 100 µM. The same measure, in the same setting: under `O=C(CCCN1CCCCC1)Nc1ccc2ccnc(Nc3ccc(F)c(C(F)(F)F)c3)c2c1` [Compound 1-33, N-(1-((4-fluoro-3-(trifluoromethyl)phenyl)amino)isoquinolin-7-yl)-4-(piperidin-1-yl)butanamide] stands 0.1 to 10 µM.

As to `O=C(CCCN1CCCCC1)Nc1ccc2ccnc(Nc3cc(Cl)c(Cl)cc3F)c2c1` [Compound 1-38, N-(1-((4,5-dichloro-2-fluorophenyl)amino)isoquinolin-7-yl)-4-(piperidin-1-yl)butanamide], the IC50 on BAX lay in the range of 0.1 to 10 µM. Turning to `O=C(CCCN1CCCCC1)Nc1ccc2ccnc(Nc3cccc(Cl)c3F)c2c1` [Compound 1-39, N-(1-((3-chloro-2-fluorophenyl)amino)isoquinolin-7-yl)-4-(piperidin-1-yl)butanamide], the IC50 on BAX lay in the range of 0.1 to 10 µM. Still for that read-out and setting: under `COc1cc2ccnc(Nc3ccc(F)c(Cl)c3)c2cc1NC(=O)CCN1CCCCC1` [Compound 1-3, N-(1-((3-chloro-4-fluorophenyl)amino)-6-methoxyisoquinolin-7-yl)-3-(piperidin-1-yl)propanamide] stands 11 to 50 µM; under `COc1cc2ccnc(Nc3ccc(F)c(Cl)c3)c2cc1NC(=O)CCCCN1CCCCC1` [Compound 1-2, N-(1-((3-chloro-4-fluorophenyl)amino)-6-methoxyisoquinolin-7-yl)-5-(piperidin-1-yl)pentanamide], 0.1 to 10 µM. Consider `CCc1cc(Nc2nccc3cc(OC)c(NC(=O)CCCN4CCCCC4)cc23)ccc1F` [Compound 1-28, N-(1-((3-ethyl-4-fluorophenyl)amino)-6-methoxyisoquinolin-7-yl)-4-(piperidin-1-yl)butanamide], for which the IC50 at BAX was in the range of 11 to 50 µM. As for `COc1cc2ccnc(Nc3cc(F)cc(Cl)c3)c2cc1NC(=O)CCCN1CCCCC1` [Compound 1-25, N-(1-((3-chloro-5-fluorophenyl)amino)-6-methoxyisoquinolin-7-yl)-4-(piperidin-1-yl)butanamide], the IC50 at BAX is 0.1 to 10 µM. For `COc1cc2ccnc(Nc3ccc(F)c(Cl)c3)c2cc1NC(=O)CCN1CCCC1` [Compound 1-42, N-(1-((3-chloro-4-fluorophenyl)amino)-6-methoxyisoquinolin-7-yl)-3-(pyrrolidin-1-yl)propanamide], the IC50 at BAX lay within 11 to 50 µM.
